Measurements: the CheMixHub viscosity set
± gives the uncertainty stated by the source.

Assay: xn = mol fraction of the nth substance listed

CCn1ccnc1 + CO
viscosity [mPa·s], 101 kPa
Settings	298.15 K	308.15 K	318.15 K
x1 = 0.0461	0.654 ± 0.033	0.5768 ± 0.029	0.5141 ± 0.026
x1 = 0.1003	0.7495 ± 0.038	0.6547 ± 0.033	0.5802 ± 0.029
x1 = 0.2389	1.012 ± 0.051	0.8673 ± 0.044	0.7489 ± 0.038
x1 = 0.3039	1.133 ± 0.057	0.967 ± 0.049	0.8304 ± 0.042
x1 = 0.3938	1.285 ± 0.065	1.085 ± 0.055	0.9324 ± 0.047
x1 = 0.4588	1.383 ± 0.07	1.163 ± 0.059	0.9927 ± 0.05
x1 = 0.5724	1.525 ± 0.077	1.275 ± 0.065	1.085 ± 0.055
x1 = 0.7001	1.669 ± 0.084	1.388 ± 0.07	1.177 ± 0.06
x1 = 0.794	1.766 ± 0.089	1.467 ± 0.074	1.24 ± 0.063
x1 = 0.8988	1.861 ± 0.094	1.536 ± 0.078	1.296 ± 0.066
x1 = 0.9431	1.89 ± 0.096	1.56 ± 0.079	1.316 ± 0.067

CCCCN + CCCO
viscosity [mPa·s]
Settings	298.15 K	303.15 K	313.15 K
100 kPa, x2 = 0.1	0.534 ± 0.012	–	–
100 kPa, x2 = 0.198	0.612 ± 0.013	–	–
100 kPa, x2 = 0.301	0.711 ± 0.015	–	–
100 kPa, x2 = 0.417	0.846 ± 0.018	–	–
100 kPa, x2 = 0.501	0.965 ± 0.021	–	–
100 kPa, x2 = 0.6	1.117 ± 0.024	–	–
100 kPa, x2 = 0.695	1.273 ± 0.027	–	–
100 kPa, x2 = 0.786	1.451 ± 0.031	–	–
100 kPa, x2 = 0.925	1.76 ± 0.038	–	–
101.33 kPa, x1 = 0.095	–	1.64 ± 0.013	1.281 ± 0.01
101.33 kPa, x1 = 0.1888	–	1.48 ± 0.012	1.159 ± 0.0094
101.33 kPa, x1 = 0.2913	–	1.286 ± 0.01	1.018 ± 0.0083
101.33 kPa, x1 = 0.3804	–	1.129 ± 0.0091	0.9048 ± 0.0075
101.33 kPa, x1 = 0.5153	–	0.9113 ± 0.0075	0.7453 ± 0.0063
101.33 kPa, x1 = 0.6163	–	0.7686 ± 0.0064	0.6425 ± 0.0055
101.33 kPa, x1 = 0.7142	–	0.6509 ± 0.0056	0.5578 ± 0.0049
101.33 kPa, x1 = 0.788	–	0.5832 ± 0.0051	0.5009 ± 0.0045
101.33 kPa, x1 = 0.9022	–	0.4992 ± 0.0045	0.4349 ± 0.004

OC1CCCCCC1 + OCCO
viscosity [mPa·s], 100 kPa
Settings	293.15 K	298.15 K	303.15 K	308.15 K	313.15 K	318.15 K
x1 = 0.0095	20.34 ± 3	16.92 ± 3	13.81 ± 3	11.37 ± 3	9.587 ± 3	7.9 ± 3
x1 = 0.0395	20.45 ± 3	16.98 ± 3	13.85 ± 3	11.42 ± 3	9.625 ± 3	7.92 ± 3
x1 = 0.0578	20.52 ± 3	17.02 ± 3	13.9 ± 3	11.44 ± 3	9.638 ± 3	7.931 ± 3
x1 = 0.0878	20.65 ± 3	17.12 ± 3	13.95 ± 3	11.49 ± 3	9.678 ± 3	7.957 ± 3
x1 = 0.1	20.71 ± 3	17.16 ± 3	13.98 ± 3	11.51 ± 3	9.694 ± 3	7.972 ± 3
x1 = 0.1961	21.18 ± 3	17.53 ± 3	14.22 ± 3	11.7 ± 3	9.819 ± 3	8.064 ± 3
x1 = 0.305	21.95 ± 3	18.16 ± 3	14.85 ± 3	12.27 ± 3	10.25 ± 3	8.379 ± 3
x1 = 0.3969	22.89 ± 3	19.04 ± 3	15.54 ± 3	12.83 ± 3	10.68 ± 3	8.723 ± 3
x1 = 0.4993	24.41 ± 3	20.37 ± 3	16.58 ± 3	13.61 ± 3	11.32 ± 3	9.271 ± 3
x1 = 0.5877	26.32 ± 3	21.93 ± 3	17.76 ± 3	14.49 ± 3	12.06 ± 3	9.883 ± 3
x1 = 0.6993	29.93 ± 3	24.59 ± 3	19.71 ± 3	15.94 ± 3	13.24 ± 3	10.77 ± 3
x1 = 0.7996	34.97 ± 3.1	28.03 ± 3	22.14 ± 3	17.65 ± 3	14.57 ± 3	11.68 ± 3
x1 = 0.8977	45.8 ± 3.1	36.3 ± 3.1	28.9 ± 3	22.7 ± 3	19 ± 3	15.7 ± 3

CCCCC(CC)COP(=O)(OCC(CC)CCCC)OCC(CC)CCCC (stereo not given) + CCCCCCCC
viscosity [mPa·s], 101 kPa
Settings	x1 = 0.098	x1 = 0.1989	x1 = 0.2979	x1 = 0.381	x1 = 0.489	x1 = 0.5902	x1 = 0.693	x1 = 0.7952	x1 = 0.9044
298.15 K	0.83 ± 0.007	1.287 ± 0.01	1.852 ± 0.014	2.52 ± 0.019	3.555 ± 0.027	4.707 ± 0.035	6.118 ± 0.044	7.688 ± 0.054	9.668 ± 0.067
303.15 K	0.773 ± 0.006	1.183 ± 0.009	1.674 ± 0.013	2.264 ± 0.017	3.136 ± 0.024	4.108 ± 0.031	5.242 ± 0.039	6.565 ± 0.047	8.204 ± 0.057
308.15 K	0.722 ± 0.006	1.074 ± 0.009	1.498 ± 0.012	2.016 ± 0.016	2.759 ± 0.021	3.592 ± 0.027	4.585 ± 0.034	5.632 ± 0.041	6.964 ± 0.049

c1cc2c3c(cccc3c1)CC2 + CO
viscosity [mPa·s], 101.33 kPa
Settings	298.15 K	303.15 K	308.15 K	313.15 K	318.15 K
x1 = 0.00465	0.5715 ± 0.004	0.5301 ± 0.0037	0.494 ± 0.0035	0.4598 ± 0.0032	0.436 ± 0.0031
x1 = 0.0072	–	0.5362 ± 0.0038	0.5036 ± 0.0035	0.4714 ± 0.0033	0.4405 ± 0.0031

Cc1ccncc1 + O
Settings	viscosity [mPa·s]
318.15 K, 101 kPa, x1 = 0.4	1.365 ± 0.013
